Measured values as given in US7968552B2, “Oxadiazolidinedione compound” (Astellas Pharma Inc., priority 2006, dated 2011).
Each block holds one compound with its values, some of them ahead of it.

Columns and labels:
[1] = target: T1, human GPR40 (Homo sapiens, UniProt O14842, R211H); experiment: Measurement of GPR40 agonist action (FLIPR, intracellular calcium); type: cell-based; settings: CHO cell strain expressing human GPR40; changes in fluorescence intensity after 1 minute of the measurement
T1 construct: expressed in transfected cells
From the text: Test Method 1: Measurement of GPR40 Agonist Action […]
i) Cloning of Human GPR40
Complete length sequence of GPR40 was obtained by carrying out a PCR method in accordance with the procedure shown below using a human genomic DNA (Clontech) as the template.
An oligonucleotide consisting of the nucleotide sequence represented by SEQ ID NO:1 was used as the forward primer, and an oligonucleotide consisting of the nucleotide sequence represented by SEQ ID NO:2 as the reverse primer. In this connection, a nucleotide sequence comprising a XbaI recognition region is added to the respective 5′-termini of the aforementioned forward primer and reverse primer. PCR was carried out in the presence of 5% dimethyl sulfoxide (DMSO) using a Taq DNA polymerase (Ex Taq DNA polymerase; Takara Bio), by repeating 30 times of a cycle consisting of 94° C. (15 seconds)/55° C. (30 seconds)/72° C. (1 minute). As a result, a DNA fragment of about 0.9 kbp was amplified. This DNA fragment was digested with XbaI and then inserted into the XbaI site of a plasmid pEF-BOS-dhfr (Nucleic acids Research, 18, 5322, 1990), thereby obtaining a plasmid pEF-BOS-dhfr-GPR40.
Nucleotide sequence of the GPR40 gene in the pEF-BOS-dhfr-GPR40 was determined by the dideoxy terminator method using a DNA sequencer (ABI 377 DNA Sequencer, Applied Biosystems). Nucleotide sequence of the GPR40 gene was as the nucleotide sequence represented by SEQ ID NO:3. The nucleotide sequence represented by SEQ ID NO:3 has an open reading frame (ORF) of 903 bases, and the amino acid sequence deduced from this ORF (300 amino acids) was as the amino acid sequence represented by SEQ ID NO:4. […]
ii) Preparation of GPR40 Stable Expression Cell
As the cell for expressing GPR protein, CHO dhfr cell (a dihydrofolate reductase (dhfr)-deficient CHO cell) was used. Also, as the plasmid for expressing GPR40 protein, the plasmid pEF-BOS-dhfr-GPR40 obtained in the aforementioned i) was used. The CHO dhfr cell was inoculated into αMEM medium containing 10% fetal calf serum (FCS) using a 6 well plate (Asahi Techno Glass) and cultured overnight to an 80 to 90% confluence, and then 2 μg per well of the plasmid pEF-BOS-dhfr-GPR40 was gene-transferred using a transfection reagent (Lipofectamine 2000; Invitrogen). After 24 hours of culturing from the gene transfer, the cells were diluted and inoculated again. […] After 20 days of culturing, the thus formed colonies of cells were individually recovered and cultured to obtain CHO cells stably expressing GPR40. From these, cells having high reactivity for intrinsic ligands oleic acid and linoleic acid were selected. […]
iii) Measurement of GPR40 Agonist Action
This test was measured by FLIPR (registered trademark, Molecular Device) using a change in intracellular calcium concentration as the index. The test method is shown in the following.
A CHO cell strain in which human GPR40 was expressed was inoculated into a 384 well black plate (Becton Dickinson) in 6×10^3 cells per well portions and cultured overnight in a CO2 incubator.
Using Calcium-3 assay kit (Molecular Device), one bottle of the phosphorescent pigment was dissolved in 10 ml of HBSS-HBEPES buffer (pH 7.4, 1×HBSS, 20 mM HEPES, Invitrogen). A 35.68 mg of probenecid (Sigma) was dissolved in 250 μl of 1M NaOH and adjusted by adding 250 μl of the HBSS-HEPES buffer. A phosphorescent pigment solution was prepared by mixing 16 ml of HBSS-HEPES buffer, 640 μl of the phosphorescent pigment and 32 μl of probenecid per one plate. The medium was discarded from the plate, and the phosphorescent pigment solution was dispensed in 40 μl per well portions and then incubated at room temperature for 2 hours. Each compound to be tested was dissolved in DMSO and then diluted with HBSS-HEPES buffer and dispensed in 10 μl portions into the plate, thereby starting the reaction, and changes in the intracellular calcium concentration were measured by FLIPR. […]

[2] = tested on: MIN6 cell; experiment: Insulin secretion-promoting action using MIN6 cell; design: species or system mouse; settings: relative activity value at 1 μM of each compound, based on 100% control (DMSO), 2 hours incubation
Procedure: Test Method 2: Insulin Secretion-Promoting Action Using MIN6 Cell
This rest examined insulin acceleration action of compounds to be tested using a mouse pancreas β cell strain, MIN6 cell. The test method is shown in the following.
The MIN6 cell was dispensed in 5×10^4 cells/well (200 μl) portions into a 96 well plate. DMEM (25 mM glucose) containing 10% FBS, 55 μM 2-mercaptoethanol, 100 U/ml penicillin and 100 μg/ml streptomycin was used as the medium. The medium was discarded 2 days thereafter using an aspirator, followed by washing once with 200 μl of KRB-HEPES (116 mM NaCl, 4.7 mM KCl, 1.2 mM KH2PO4, 1.2 mM MgSO4, 0.25 mM CaCl2, 25 mM NaHCO3, 0.005% FFA Free BSA, 24 mM HEPES (pH 7.4)) containing 2.8 mM glucose, which was warmed up to 37° C., and subsequent incubation again at 37° C. for 1 hour by adding 200 μl of the same buffer. After discarding the above-mentioned buffer using an aspirator and again washing with the buffer (200 μl), a predetermined concentration of a compound to be tested was added to the KRB-HEPES containing 2.8 mM or 22.4 mM glucose and added to respective wells in 100 μl portions and incubated at 37° C. for 2 hours. The above-mentioned samples were fractioned and diluted 100 times, and the insulin concentration was determined using an insulin RIA kit (Amersham RI). The activity value was shown by a relative activity value (%) at the time of 1 μM of each compound, based on 100% control (DMSO).

[3] = tested on: blood glucose after glucose loading; experiment: Normal mice single oral glucose tolerance test; type: in vivo; settings: Mus musculus, 0.5 h, male ICR mice, 10 mg/kg orally 30 minutes before glucose loading (2 g/kg), 30 minutes after glucose loading, based on control group, read-out: Blood glucose lowering ratio
Procedure: Test Method 3: Normal Mice Single Oral Glucose Tolerance Test
This test examined on the blood glucose suppression action of compounds to be tested after glucose loading, using normal mice. The test method is shown below.
Male ICR mice (6 weeks of age) after 1 week of preliminary rearing were subjected to overnight fasting and used as the animals to be tested. Each compound to be tested was made into a 0.5% methyl cellulose suspension and orally administered at a dose of 10 mg/kg 30 minutes before the glucose loading (2 g/kg). Administration of 0.5% methyl cellulose was used in the control group. Blood glucose lowering ratio (%) after 30 minutes of glucose loading was calculated based on the control group.

T1 sequence (O14842 whole entry R211H): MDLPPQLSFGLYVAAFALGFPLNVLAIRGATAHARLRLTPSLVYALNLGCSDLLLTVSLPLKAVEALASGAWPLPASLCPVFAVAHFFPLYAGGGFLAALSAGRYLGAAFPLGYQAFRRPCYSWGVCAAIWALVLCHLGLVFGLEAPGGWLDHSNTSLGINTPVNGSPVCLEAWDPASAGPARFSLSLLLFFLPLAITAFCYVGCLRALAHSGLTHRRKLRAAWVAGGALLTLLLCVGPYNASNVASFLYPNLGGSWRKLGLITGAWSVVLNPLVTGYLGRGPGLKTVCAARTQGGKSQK

Structure (SMILES): COc1cc(F)c(-c2cccc(COc3ccc(Cn4oc(=O)[n-]c4=O)cc3)c2)c(F)c1.[Na+] [Example 4, sodium 2-{4-[(2′,6′-difluoro-4′-methoxybiphenyl-3-yl)methoxy]benzyl}-3,5-dioxo-1,2,4-oxadiazolidin-4-ide]
EC50 [1]: 350 nM
Insulin secretion-accelerating action [2]: 177%

EC50 [1]: 31 nM
Structure (SMILES): O=c1[nH]c(=O)n(Cc2ccc(OCc3cccc(-c4ccc(OCCO)cc4)c3)cc2)o1 [Example 8]

EC50 [1]: 800 nM
Structure (SMILES): O=c1[nH]c(=O)n(Cc2ccc(OCc3cccc(Br)c3)cc2)o1 [Example 9, 2-{4-[(3-bromobenzyl)oxy]benzyl}-1,2,4-oxadiazolidine-3,5-dione]

Structure (SMILES): Cc1cc(OCCO)ccc1-c1cccc(COc2ccc(Cn3oc(=O)[nH]c3=O)cc2)c1 [Example 14, sodium 2-(4-{[4′-(2-hydroxyethoxy)-2′-methylbiphenyl-3-yl]methoxy}benzyl)-3,5-dioxo-1,2,4-oxadiazolidin-4-ide]
EC50 [1]: 390 nM
inhibition in vivo at 10 mg/kg [3]: 34%

EC50 [1]: 450 nM
Structure (SMILES): Cc1cccc(C)c1-c1cccc(C(=O)Nc2ccc(Cn3oc(=O)[nH]c3=O)cc2)c1 [Example 16, sodium 2-(4-{[(2′,6′-dimethylbiphenyl-3-yl)carbonyl]amino}benzyl)-3,5-dioxo-1,2,4-oxadiazolidin-4-ide]

EC50 [1]: 640 nM
Structure (SMILES): O=c1[nH]c(=O)n(Cc2ccc(OCc3cccc(-c4cccnc4)c3)cc2)o1 [Example 33]

Structure (SMILES): N#Cc1ccc(-c2cccc(COc3ccc(Cn4oc(=O)[nH]c4=O)cc3)c2)cc1 [Example 34]
Insulin secretion-accelerating action [2]: 169%

Structure (SMILES): O=c1[n-]c(=O)n(Cc2ccc(OCc3cccc(Oc4ccccc4)c3)cc2)o1.[Na+] [Example 38]
EC50 [1]: 650 nM
Insulin secretion-accelerating action [2]: 228%

Structure (SMILES): Cc1cccc(C)c1-c1cccc(COc2ccc(Cn3oc(=O)[n-]c3=O)cc2)c1.[Na+] [Example 39]
EC50 [1]: 260 nM
Insulin secretion-accelerating action [2]: 192%
inhibition in vivo at 10 mg/kg [3]: 26%

Structure (SMILES): CCOCCOc1cc(C)c(-c2cccc(COc3ccc(Cn4oc(=O)[n-]c4=O)cc3)c2)c(C)c1.[Na+] [Example 44]
EC50 [1]: 670 nM
Insulin secretion-accelerating action [2]: 287%
inhibition in vivo at 10 mg/kg [3]: 21%

Structure (SMILES): COc1cc(C)c(-c2cccc(COc3ccc(Cn4oc(=O)[nH]c4=O)cc3)c2)c(C)c1 [Example 47]
EC50 [1]: 420 nM
inhibition in vivo at 10 mg/kg [3]: 36%

Structure (SMILES): COc1cccc(OC)c1-c1cccc(COc2ccc(Cn3oc(=O)[nH]c3=O)cc2)c1 [Example 56]
EC50 [1]: 760 nM
inhibition in vivo at 10 mg/kg [3]: 31%

Structure (SMILES): O=c1[nH]c(=O)n(Cc2ccc(OCc3cccc(-c4c(Cl)cccc4Cl)c3)cc2)o1 [Example 60]
EC50 [1]: 460 nM
inhibition in vivo at 10 mg/kg [3]: 35%

EC50 [1]: 930 nM
Structure (SMILES): Cc1cccc(C)c1-c1cncc(COc2ccc(Cn3oc(=O)[nH]c3=O)cc2)c1 [Example 82]

EC50 [1]: 450 nM
Structure (SMILES): Cc1cccc(C)c1-c1cccc(COc2ccc(Cn3oc(=O)[nH]c3=O)cn2)c1 [Example 99]

Structure (SMILES): Cc1cc(C(=O)NC2CCOCC2)ccc1-c1cccc(COc2ccc(Cn3oc(=O)[nH]c3=O)cc2)c1 [Example 117]
EC50 [1]: 290 nM
inhibition in vivo at 10 mg/kg [3]: 21%

Structure (SMILES): Cc1cc(OS(C)(=O)=O)cc(C)c1-c1cccc(COc2ccc(Cn3oc(=O)[nH]c3=O)cc2)c1 [Example 119]
EC50 [1]: 220 nM
inhibition in vivo at 10 mg/kg [3]: 22%

Structure (SMILES): Cc1cc(OCCC(C)(C)O)cc(C)c1-c1cccc(COc2ccc(Cn3oc(=O)[nH]c3=O)cc2)c1C [Example 166]
EC50 [1]: 220 nM
inhibition in vivo at 10 mg/kg [3]: 35%

Structure (SMILES): Cc1cc(OCC[C@H](C)O)ccc1-c1cccc(COc2ccc(Cn3oc(=O)[nH]c3=O)cc2)c1C [Example 173]
EC50 [1]: 660 nM
inhibition in vivo at 10 mg/kg [3]: 21%

Structure (SMILES): CC(=O)NCCCOc1ccc(-c2cccc(COc3ccc(Cn4oc(=O)[nH]c4=O)cc3)c2C)c(C)c1 [Example 189]
EC50 [1]: 59 nM
inhibition in vivo at 10 mg/kg [3]: 30%

Structure (SMILES): Cc1cc(OCC[C@H](C)O)cc(C)c1-c1cccc(COc2ccc(Cn3oc(=O)[nH]c3=O)cc2)c1C [Example 193]
EC50 [1]: 520 nM
inhibition in vivo at 10 mg/kg [3]: 46%

Structure (SMILES): Cc1cccc(C)c1-c1cccc(CNc2ccc(Cn3oc(=O)[nH]c3=O)cc2)c1 [Example 406]
EC50 [1]: 120 nM
inhibition in vivo at 10 mg/kg [3]: 42%
